One test concerns the target T1, Angiotensin II Receptor (Bos taurus, UniProt P25104).
T1 construct: Adrenal gland cortices from cattle (AGCs), which have been freshly removed and carefully freed from gland medulla; from tissue; host or cells: bovine adrenal gland cortex, partially purified membrane fractions
T1 sequence (P25104 1-359): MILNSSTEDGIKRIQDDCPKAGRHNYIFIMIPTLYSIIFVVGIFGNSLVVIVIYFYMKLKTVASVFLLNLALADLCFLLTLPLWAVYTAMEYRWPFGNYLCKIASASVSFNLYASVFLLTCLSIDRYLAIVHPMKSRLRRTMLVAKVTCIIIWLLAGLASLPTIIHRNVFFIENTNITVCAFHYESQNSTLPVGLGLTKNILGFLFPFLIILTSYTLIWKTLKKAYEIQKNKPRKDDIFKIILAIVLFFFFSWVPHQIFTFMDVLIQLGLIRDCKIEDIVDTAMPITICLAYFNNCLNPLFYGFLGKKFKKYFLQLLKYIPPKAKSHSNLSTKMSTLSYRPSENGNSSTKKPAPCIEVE
Briefly: Interaction with the angiotensin II receptor in membrane fractions of the adrenal gland cortex (bovine), 3H-angiotensin II binding. As to conditions: 3H-angiotensin II (3-5 nM), bovine adrenal gland cortex membranes, 60 min at room temperature, pH 7.2. As for the experimental part: Adrenal gland cortices from cattle (AGCs), which have been freshly removed and carefully freed from gland medulla, are comminuted in sucrose solution (0.32M) with the aid of an Ultra-Turrax (Janke & Kunkel, Staufen i.B.) to give a coarse membrane homogenate and partially purified to give membrane fractions in two centrifugation steps.
The receptor binding investigations are carried out on partially purified membrane fractions of bovine AGC using radioactive angiotensin II in an assay volume of 0.25 ml, which specifically contains the partially purified membranes (50-80 μg), ^3 H-angiotensin II (3-5 nM), test buffer solution (50 mM Tris, pH 7.2, 5 mM MgCl2) and the substances to be investigated. After an incubation period of 60 min at room temperature, the unbound radioactivity of the samples is separated by means of moistened glass fiber filters (Whatman GF/C) and the bound radioactivity is measured […] in a scintillation cocktail after washing the protein with ice-cold buffer solution (50 mM Tris/HCl, pH 7.4, 5% PEG 6000). The raw data were analysed using computer programs to give Ki or IC50 values (Ki : IC50 values corrected for the radioactivity used; IC50 values: concentration at which the substance to be investigated causes a 50% inhibition of the specific binding of the radioligand).

Test [1] relates to contractions induced by AII (isolated rabbit aorta rings). In words: Inhibition of the vascular contraction in isolated rabbit aorta rings in vitro, contractions induced by angiotensin II. The format is cell-based. As to conditions: Oryctolagus cuniculus, based on the 3rd = submaximal agonist concentration, read-out: IC50 against contractions induced by: AII. As for the experimental part: Rabbits of either sex are stunned by a blow to the back of the head and bled out, or in some cases anaesthetized with Nembutal (about 60-80 mg/kg i.v.) and sacrificed by opening the thorax. The thoracic aorta is removed, freed from adhering connective tissue, divided into ring segments 1.5 mm wide and individually transferred under an initial loading of about 3.5 g to 10 ml organ baths containing Krebs-Henseleit nutrient solution, aerated with 95% O2 /5% CO2 and temperature-controlled at 37° C., of the following composition: 119 mmol/l of NaCl; 2.5 mmol/l of CaCl2 ×2H2 O; 1.2 mmol/l of KH2 PO4; 10 mmol/l of glucose; 4.8 mmol/l of KCl; 1.4 mmol/l of MgSO4 ×7H2 O and 25 mmol/l of NaHCO3.
The contractions are determined isometrically by means of Statham UC2 cells via bridge amplifiers (ifd Mulheim or DSM Aalen) and digitalized by means of A/D converters (System 570, Keithley Munich) and assessed. The agonist dose response curves (DRCs) are plotted hourly. With each DRC, 3 or 4 individual concentrations are applied to the baths =at a 4 min interval. […]
The height of the 3rd DRC, in a normal case, is used as a reference quantity for the assessment of the test substance to be investigated in further runs, which substance is applied to the baths in the following DRCs in each case in increasing dose at the start of the incubation period. […]

The test system of the next test is smooth muscle cells. Briefly: Inhibition of the proliferation of smooth muscle cells (3H-thymidine incorporation). As to conditions: rat aortic smooth muscle cells, stimulated by 10% FCS. The format is cell-based. As to the method: To determine the antiproliferative action of the compounds, smooth muscle cells are used which are obtained from the aortas of rats by the media explant technique [R. Ross, J. Cell. Biol. 50., 172, 1971]. The cells are inoculated into suitable culture dishes, as a rule 96-hole plates, and cultured at 37° C. in 5% CO2 for 2-3 days in medium 199 containing,7.5% FCS and 7.59% NCS, 2 mM L-glutamine and 15 mM HEPES, pH 7.4. The cells are then synchronized for 2-3 days by withdrawal of serum and then stimulated into growth using serum or other factors. Test compounds are simultaneously added. After 16-20 hours, 1 μCi ^3 H-thymidine is added and after a further 4 hours the incorporation of this substance into the TCA-precipitable DNA of the cells is determined. To determine the IC50 values, the active compound concentration is calculated which, on sequential dilution of the active compound, causes semi-maximum inhibition of the thymidine incorporation produced by 10% FCS.

Structures are written as SMILES.

In turn, `CC(C)(C)OC(=O)[C@@H]1CCCC[C@H]1c1ccc(Cn2c(-c3ccccc3)nc3cccnc32)cc1` (relative stereo) [Example 9] had a Ki at Angiotensin II Receptor of 0.047 µM. Also, the half-maximal inhibitory concentration (IC50) in test [1] was found to be 0.26 µM.

Molecule `O=C(N[C@H](CO)c1ccccc1)C1CCCCC1c1ccc(Cn2c(C3CC3)nc3cccnc32)cc1` (single isomer, unassigned) [Example 16] had an IC50 with smooth muscle cells of 0.41 µM.

`O=C(N[C@H](CO)c1ccccc1)C1CCCCC1c1ccc(Cn2c(C3CC3)nc3cccnc32)cc1` (single isomer, unassigned) [Example 17] had an IC50 with smooth muscle cells of 0.002 µM.

The molecule `NC(=O)C(NC(=O)C1CCCCC1c1ccc(Cn2c(C3CC3)nc3cccnc32)cc1)c1ccccc1` (single isomer, unassigned) [Example 21] showed a half-inhibitory concentration (IC50) in the test with smooth muscle cells (Rattus norvegicus) of 0.007 µM.

`O=C(N[C@H](CO)c1ccccc1)C1CCCCC1c1ccc(Cn2c(-c3ccccc3)nc3cccnc32)cc1` (stereo partly shown) [Example 25] came in with an IC50 in the test on smooth muscle cells (Rattus norvegicus) of 0.026 µM.

In turn, `CCCCc1nc2cc(Br)cnc2n1Cc1ccc(C2CCCCC2C(=O)N[C@H](CO)c2ccccc2)cc1` (stereo partly shown) [Example 29] displayed an IC50 in the test on smooth muscle cells (Rattus norvegicus) of 0.004 µM.

`CCCCc1nc2ccccc2n1Cc1ccc(C2CCCCC2C(=O)N[C@H](CO)c2ccccc2)cc1` (stereo partly shown) [Example 30] returned a Ki on Angiotensin II Receptor of 0.019 µM. In addition, in test [1], the IC50 stood at 0.22 µM.

For the molecule `CCCCc1nc2ccccc2n1Cc1ccc(C2CCCCC2C(=O)N[C@H](CO)c2ccccc2)cc1` (stereo partly shown) [Example 31], half-maximal inhibition with smooth muscle cells (Rattus norvegicus) (IC50) was put at 0.003 µM.

The record behind these values is patent US5395840A, “Heterocyclically substituted phenyl-cyclohexane-carboxylic acid derivatives” (Bayer Aktiengesellschaft, priority 1993, dated 1995).
